Measured values as given in patent US9486447B2, “Compositions and methods for controlling neuronal excitation” (The General Hospital Corporation, priority 2011, dated 2016).

How the values were obtained:
[1] = tested on: zebrafish embryos; test: Zebrafish behavioral assay (light-dependent motor excitation, excitation score); type: in vivo
Protocol: To identify small molecules for the optical control of endogenous channels, a screen was conducted for compounds that could drive light-dependent motor behaviors in wild-type zebrafish. Zebrafish embryos are particularly well suited for phenotype based chemical screens^28,29. They are blind for the first 3 days of development and other than a one-time motor response to the first light exposure in dark-adapted animals (the photomotor response, PMR), zebrafish embryos are unresponsive to light^31,30 (FIG. 1A). A library of 10,000 structurally diverse synthetic small molecules was screened for compounds that render zebrafish embryos responsive to light. Behavioral responses were measured for each well in comparison to a set of 2,500 DMSO treated controls. This screen identified a single compound, optovin, that increased motor activity greater than 40 standard deviations above the control mean (FIGS. 1A-1C).
A large number of fertilized eggs (up to 5,000 embryos per day) were collected from group mating of Ekkwill or TuAB zebrafish. Embryos were raised in HEPES (10 mM) buffered E3 media in a dark incubator at 28° C. until […]. Groups of ˜8 embryos (28 hpf) were distributed into the wells of flat bottom black-walled 96 well plates filled with E3 media (360 μl). Embryos were then incubated in a dark incubator 25° C. for chemical treatment and subsequent experiments.
The Tim Tec ACTIPROBEβ library contains 10,000 compounds dissolved in DMSO at a stock concentration of 1 mg/ml (˜3 mM). The Tim Tec library was screened at a 1:300 dilution in E3 buffer for a final concentration of ˜10 μM. Negative controls were treated with an equal volume of DMSO. Stock solutions were added directly to zebrafish in the wells of a 96 well plate, mixed, and allowed to incubate for 2-10 hours in the dark prior to behavioral evaluation in the PMR assay. The Tim Tec library (10,000 compounds) was purchased from the Tim Tec corporation (Newark, Del.). The Neurotransmitter Library (700 compounds; cat #2810) was purchased from Biomol International. Reordered hit compounds were dissolved in DMSO and added to wells as described above.
Animals were exposed to a two pulse stimulus train with a 10 s inter-stimulus interval. Exposure to the first pulse was used to trigger the photomotor response, which has a refractory phase of approximately 10 minutes. […] In a typical assay, 1000 frames of digital video were recorded at 33 fps using a Hamamatsu ORCA-ER camera mounted on a Nikon TE200 microscope with a 1× objective. Instrument control and data measurement were performed using custom scripts for Metamorph Software (Molecular Devices). Each video was saved for review. Light stimuli were generated with a 300-watt xenon bulb housed in a Sutter Lambda LS illuminator and delivered to the well 10 s and 20 s after the start of each video. A cold mirror (reflectance between 300 nm and 700 nm) on the Sutter illuminator was used to block wavelengths outside of this range. Light intensity was measured using a PM100D power meter attached to a S120VC photodiode power sensor (Thorlabs). Where indicated, filters were used to restrict the excitation light to the indicated wavelengths.
To analyze digital video recordings, custom software scripts were used to automatically draw six evenly spaced line segments across each well such that each embryo is likely to be crossed by one of the lines. The software then tracks the average intensity of the pixels for each segment over time. As the embryos move, the light intensity at some of the pixels changes. The motion index was calculated by taking the total absolute difference in pixel intensity between frames. This motion index correlates with the overall amount of motion in the well, both in terms of contraction frequency and number of animals in motion. Behavioral features are quantified by ‘excitation scores’ that are calculated by taking the 75th percentile of the motion index for 3-5 s following the light stimulus. […]

[2] = biological target: T1, human TrpA1 (hTrpA1) (Homo sapiens, UniProt O75762); test: Whole-cell patch clamp in transfected HEK293T cells; type: cell-based; conditions: 10 μM, following photo-stimulation (405 nm)
T1 construct: expressed in transfected cells; host or cells: HEK293 / HEK293T
Protocol: To determine if TRPA1 is sufficient for optovin activity, current density amplitudes were analyzed via whole-cell patch clamping in HEK293T cells transfected with the human TrpA1 (hTrpA1) gene.
HEK293 cells were plated upon poly-lysine coated cover slips and transiently transfected with human TRPA1. Voltage clamp recordings were made in the whole-cell configuration 48 hours after transfection using glass electrodes with 2-4M ohm resistance when filled with (in mM) 140 CsCl, 2 Mg2ATP3, 2 MgCl, 5 EGTA, and 10 HEPES (pH adjusted to 7.2 with CsOH) and while bathed at room temperature in extracellular solution containing (in mM) 150 NaCl, 5.4 KCl, 1.8 CaCl2, 1 MgCl, and 5 mM HEPES (pH adjusted to 7.4 with NaOH). A voltage ramp protocol from −80 mV to +80 mV over 400 ms was repeated every 5 seconds during the following conditions: while the cell was dialyzed by the pipette, followed by at least 60 seconds of illumination with 405 nm light, after which optovin (10 μM) containing extracellular solution was perfused into the bath, followed by 1 minute of illumination. Current elicited at holding potentials of +/−70 mV were used to characterize TRPA1 activation.

[3] = biological target: hERG potassium channel (Homo sapiens, UniProt Q12809); test: hERG inhibition, FluxOR system; type: cell-based; conditions: with or without prior exposure to light
Protocol: Optovin (PDSP 22594) was tested for hERG inhibition using the FluxOR system with cisapride as a positive control.

[4] = Crossing of the epidermis after topical application; type: in vivo, human; conditions: humans as well as zebrafish
Text: As described herein, photo-sensitive TrpA1 agonists can be bioavailable. […] In some embodiments, a photo-sensitive TrpA1 agonist can be bioavailable when administered systemically. […] In some embodiments, oral administration of a photo-sensitive TrpA1 agonist can be considered for any method described herein.
Photo-sensitive TrpA1 agonists described herein can be administered by any delivery method known in the art, including but not limited to, injection; parenteral, intravenous, intramuscular, subcutaneous, transdermal, airway (aerosol), pulmonary, direct application, microsurgery, endoscopic surgery, topically, orally, vaginally and/or by contact with the gastro-intestinal lumen. […] This would agonist to all, or at least a variety of tissues, depending e.g. upon design/modification of the agonist to limit or expand systemic bioavailability such that electromagnetic radiation applied to any desired location would be expected to activate neuronal activity at the site of irradiation. In some embodiments, the photo-sensitive TrpA1 agonist can be administered systemically. In some embodiments, the photo-sensitive TrpA1 agonist can be administered locally.

Sequence of hERG potassium channel (Q12809 whole entry): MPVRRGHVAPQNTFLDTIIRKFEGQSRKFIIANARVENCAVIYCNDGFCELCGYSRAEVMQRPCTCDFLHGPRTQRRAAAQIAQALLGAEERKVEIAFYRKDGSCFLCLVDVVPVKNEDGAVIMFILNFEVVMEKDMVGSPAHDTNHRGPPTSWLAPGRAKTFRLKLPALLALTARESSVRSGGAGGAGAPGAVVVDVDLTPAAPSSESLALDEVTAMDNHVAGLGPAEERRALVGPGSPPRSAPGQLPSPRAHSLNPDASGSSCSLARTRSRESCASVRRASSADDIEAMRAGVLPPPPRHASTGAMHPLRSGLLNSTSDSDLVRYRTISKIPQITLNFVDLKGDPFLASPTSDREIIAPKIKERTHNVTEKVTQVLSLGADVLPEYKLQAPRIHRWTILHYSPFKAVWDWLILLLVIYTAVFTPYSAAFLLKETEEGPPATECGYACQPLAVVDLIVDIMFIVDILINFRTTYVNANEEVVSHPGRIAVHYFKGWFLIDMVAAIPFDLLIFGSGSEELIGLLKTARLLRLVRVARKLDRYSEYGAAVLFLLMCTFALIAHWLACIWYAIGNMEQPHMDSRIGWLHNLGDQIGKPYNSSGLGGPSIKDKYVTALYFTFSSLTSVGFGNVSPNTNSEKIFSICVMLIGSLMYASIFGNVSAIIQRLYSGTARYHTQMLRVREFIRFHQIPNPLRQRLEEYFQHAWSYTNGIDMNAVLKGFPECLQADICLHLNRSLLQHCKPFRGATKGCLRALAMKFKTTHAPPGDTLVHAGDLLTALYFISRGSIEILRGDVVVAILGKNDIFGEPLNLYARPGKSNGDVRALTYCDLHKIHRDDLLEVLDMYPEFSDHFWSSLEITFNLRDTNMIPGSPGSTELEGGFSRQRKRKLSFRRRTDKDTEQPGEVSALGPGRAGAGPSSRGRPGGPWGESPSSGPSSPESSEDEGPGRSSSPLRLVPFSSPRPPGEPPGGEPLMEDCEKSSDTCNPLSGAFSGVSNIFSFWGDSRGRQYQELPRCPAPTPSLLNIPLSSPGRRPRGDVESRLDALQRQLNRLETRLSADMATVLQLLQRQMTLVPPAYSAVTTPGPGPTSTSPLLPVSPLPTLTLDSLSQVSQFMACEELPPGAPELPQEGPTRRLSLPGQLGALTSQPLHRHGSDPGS
T1 sequence (O75762 whole entry): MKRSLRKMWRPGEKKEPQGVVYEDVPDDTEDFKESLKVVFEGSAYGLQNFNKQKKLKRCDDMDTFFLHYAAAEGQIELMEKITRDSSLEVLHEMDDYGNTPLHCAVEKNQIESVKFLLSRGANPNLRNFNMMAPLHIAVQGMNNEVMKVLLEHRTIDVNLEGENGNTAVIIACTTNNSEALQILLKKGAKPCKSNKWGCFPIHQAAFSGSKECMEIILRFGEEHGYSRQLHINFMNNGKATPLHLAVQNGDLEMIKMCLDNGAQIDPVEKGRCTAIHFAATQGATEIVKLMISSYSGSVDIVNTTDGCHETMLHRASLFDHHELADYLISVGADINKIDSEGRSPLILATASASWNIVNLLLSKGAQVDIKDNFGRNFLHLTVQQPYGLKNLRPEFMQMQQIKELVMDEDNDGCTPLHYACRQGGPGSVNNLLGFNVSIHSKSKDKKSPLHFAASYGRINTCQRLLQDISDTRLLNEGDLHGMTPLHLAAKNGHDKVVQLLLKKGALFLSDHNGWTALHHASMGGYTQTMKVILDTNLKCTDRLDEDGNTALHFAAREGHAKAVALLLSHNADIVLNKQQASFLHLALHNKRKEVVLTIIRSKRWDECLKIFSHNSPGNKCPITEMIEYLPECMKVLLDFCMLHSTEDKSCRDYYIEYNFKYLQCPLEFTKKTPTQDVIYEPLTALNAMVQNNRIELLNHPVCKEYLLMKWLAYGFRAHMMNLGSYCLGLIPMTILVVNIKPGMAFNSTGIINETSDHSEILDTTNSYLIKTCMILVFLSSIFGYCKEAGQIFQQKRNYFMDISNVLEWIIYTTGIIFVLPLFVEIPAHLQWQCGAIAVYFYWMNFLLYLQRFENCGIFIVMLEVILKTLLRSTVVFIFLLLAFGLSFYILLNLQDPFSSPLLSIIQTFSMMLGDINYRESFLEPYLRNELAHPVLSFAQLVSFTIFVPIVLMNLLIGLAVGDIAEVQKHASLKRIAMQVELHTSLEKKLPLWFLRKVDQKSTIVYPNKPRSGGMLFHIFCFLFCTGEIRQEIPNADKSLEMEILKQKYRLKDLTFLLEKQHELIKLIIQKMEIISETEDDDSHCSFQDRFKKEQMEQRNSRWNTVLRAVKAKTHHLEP

In the case of Cc1cc(/C=C2/SC(=S)NC2=O)c(C)n1-c1cccnc1 [optovin], the “light-dependent motor excitation in vivo” value ([1]; 10 μM, n=3, FIG. 4H) is reported as “cause light-dependent motor excitation”, the “behavioral excitation (activity of optovin analogs)” value ([1]; 10 μM, n=5, FIG. 2A) is reported as “active” and the “response to stimulus wavelengths” value ([1]; 387, 485, 560 nm or longer) is reported as “respond to 387 nm (violet) stimuli, but not to 485 nm (blue), 560 nm (green) or longer wavelengths”. For the same compound, the EC50 ([1]; Danio rerio, dose response, n=5, read-out: EC50 of light-induced motor excitation (behavioral excitation score)) was 2000 nM, the “behavioral excitation by singlet oxygen generating photosensitizers” value ([1]; FIG. 4F) was “only optovin causes behavioral excitation” and the “response to 387 nm light stimulus” value ([1]; TrpA1b homozygous mutant animals) was “failed to respond”. For the same compound, the latency of movement ([1]; depending on developmental stage) was 100 to 300 ms, the “relation of stimulus and response duration” value ([1]; radiation stimuli lasting between 5 and 20 seconds) was “stimulus and response duration are proportional” and the “increase in motor activity above the control mean (Z-score)” value ([1]; screen at ~10 μM, light stimulus, vs DMSO treated controls) was “greater than 40 standard deviations”. The “light response of spinalized preparations” value ([1]; trunks transected posterior to the hindbrain) was “respond to light”, the “response to 387 nm light stimulus” value ([1]; wild-type, TrpA1a heterozygous and TrpA1a homozygous mutant animals) was “respond to the 387 nm light stimulus with the typical prolonged motor excitation” and the “Off rate (time between end of light stimulus and return to rest)” value ([1]; zebrafish, in vivo) was 2 s. The “On rate (latency between start of light stimulus and start of embryo movement)” value ([1]; zebrafish, in vivo) was -150 ms, the lowest effective dose ([1]; zebrafish, in vivo) was 3 µM and the “radiation stimulus intensity eliciting motor behavior” value ([1]; zebrafish, in vivo) was “greater than 1.6 μW/mm^2”. For the same compound, the “response to repeated light pulses” value ([1]; zebrafish, in vivo) was “multiple responses can be triggered with repeated light pulses”, the “current density amplitudes in response to positive voltage steps” value [2] was “significantly increased” and the “effect on hERG activity” value [3] was “no effect on hERG activity”. For the same compound, the “crossing the epidermis to reach underlying muscles at an effective concentration” value [4] was “able to cross the epidermis”.
